# Test results reported in patent US20180072739A1, “CO-CRYSTALS OF A BRUTON'S TYROSINE KINASE INHIBITOR” (Pharmacyclic LLC, priority 2015, published 2018).
# Assay: physchem
# Conditions: water, 25 °C, thermodynamic from solid
# Description: The suspension was equilibrated at 25° C. for 2 hours with aliquots sampled at 30, 60 and 120 min; the pH was measured at each time point. The suspension was then filtered through a glass fibre C filter. The filtrate was then diluted by an appropriate factor. Quantitation was by HPLC with reference to a standard solution of approximately 0.2 mg/mL in CH3CN:water. Different volumes of the standard, diluted and undiluted sample solutions were injected. […]
compound,measurement,value
"C=CC(=O)N1CCC[C@@H](n2nc(-c3ccc(Oc4ccccc4)cc3)c3c(N)ncnc32)C1 [Compound 1, 1-((R)-3-(4-amino-3-(4-phenoxyphenyl)-1H-pyrazolo[3,4-d]pyrimidin-1-yl)piperidin-1-yl)prop-2-en-1-one]",solubility at 30 min,~1.64 mg/mL
same,solubility at 60 min,~1.64 mg/mL
same,solubility at 120 min,~1.69 mg/mL
